According to patent US4345938A, “Herbicidal 2-haloacetanilides” (Monsanto Company, priority 1980, dated 1982):
Like-named read-outs stand apart in the source and are kept apart here.

How the values were obtained:
Type in all cases: in vivo
Eleocharis kuroguwai = assay: Field transplant rice test, applied 9 DAT, EK; conditions: for inhibition at 375 g/ha / inhibition at 750 g/ha / inhibition at 1500 g/ha / inhibition at 3000 g/ha: Eleocharis kuroguwai, 216 h, read-out: Percent Inhibition, EK; for inhibition at 375 g/ha: 0.375 Kg/Ha; for inhibition at 750 g/ha: 0.75 Kg/Ha; for inhibition at 1500 g/ha: 1.5 Kg/Ha; for inhibition at 3000 g/ha: 3.0 Kg/Ha
Excerpt: (§1) In the discussion of data below, occasional reference is made to herbicide application rates symbolized as "GR15 " and "GR85 "; these rates are given in kilograms per hectare (kg/ha) which are convertible into pounds per acre (lbs/A) by dividing the kg/ha rate by 1.12.
(§2) A further guide to the effectiveness of a chemical as a selective herbicide is the "selectivity factor" ("SF") for a herbicide in given crops and weeds. The selectivity factor is a measure of the relative degree of crop safety and weed injury and is expressed in terms of the GR15 /GR85 ratio, i.e., the GR15 rate for the crop divided by the GR85 rate for the weed, both rates in kg/ha (lb/A.)
(§3) The test data in Table III for all compounds was obtained under identical test conditions. The weeds used in the tests herein have the following abbreviations in the tables: Echinochloa crus-galli (EC), Monochloria vaginalis (MV), Cyperus Serotinus (CS), Eleocharis Kuroguwai (EK) and Sagittaria trifolia (ST).
(§4) In further comparative tests, a preferred compound of this invention (Example 1) was tested in the field with prior art Compounds A-D. These tests were conducted under conditions reflecting herbicide application times generally favorable to all herbicides in the test. The timing of application of herbicides to transplant rice is very important, whether, as in some instances, prior to transplanting the rice; in other instances, at the time of transplanting or else after transplanting. Application times are conventionally referred to as "days before transplant" (DBT) or "days after transplant" ("DAT"). The field test data in Table IV was obtained from a test in which the herbicides were applied at the time of transplant, i.e., "0 DAT", with observations being made weekly up to six weeks after transplant ("WAT") beginning at two weeks after transplant; for illustrative and representative purposes, only the early, middle and late period observations, i.e., 2 WAT, 4 WAT and 6 WAT, are shown in Table IV. The data in Table IV is for rates of application common to all herbicides in the test, i.e., from 3.0 kg/ha (2.67 lb/A) down to 0.375 kg/ha (0.34 lb/A). All herbicides were applied at their actual or expected use rates, i.e., as granules containing 2.5% by weight herbicide for the compound of Example 1, Compounds B, C and D and 5.0% by weight for Compound A.
(§5) In Table V are presented field data showing the relative performance of the compound of Example 1 and Compounds A-D applied 9 DAT, with observations being made weekly from 3 WAT to 7 WAT; again, for illustrative and representative purposes, only the early, middle and late period observations are reported in Table V, the herbicide rates and concentrations of active ingredients the same as is shown in Table IV.

Monochoria vaginalis = assay: Field transplant rice test, applied 9 DAT, MV; conditions: for inhibition at 375 g/ha / inhibition at 750 g/ha / inhibition at 1500 g/ha / inhibition at 3000 g/ha: Pontederia vaginalis, 216 h, read-out: Percent Inhibition, MV; for inhibition at 375 g/ha: 0.375 Kg/Ha; for inhibition at 750 g/ha: 0.75 Kg/Ha; for inhibition at 1500 g/ha: 1.5 Kg/Ha; for inhibition at 3000 g/ha: 3.0 Kg/Ha; for selectivity factor (GR15/GR85), MV in transplant rice: between 3 WAT and 7 WAT
Excerpt: as §1, §2, §3, §4, §5

Rice = assay: Field transplant rice test, applied 9 DAT, rice injury; conditions: Oryza sativa, 216 h, read-out: Percent Inhibition, Rice; for inhibition at 375 g/ha: 0.375 Kg/Ha; for inhibition at 750 g/ha: 0.75 Kg/Ha; for inhibition at 1500 g/ha: 1.5 Kg/Ha; for inhibition at 3000 g/ha: 3.0 Kg/Ha
Procedure: as §4, §5

Echinochloa crus-galli = assay: Field transplant rice test, applied 0 DAT, EC; conditions: 0 h, read-out: Percent Inhibition, EC; for inhibition at 375 g/ha: 0.375 Kg/Ha; for inhibition at 750 g/ha: 0.75 Kg/Ha; for inhibition at 1500 g/ha: 1.5 Kg/Ha; for inhibition at 3000 g/ha: 3.0 Kg/Ha
Procedure: as §3, §4

In the case of `CCCCOCN(C(=O)CCl)c1c(C)cccc1C(C)(C)C` [Compound C, 2'-methyl-6'-tert-butyl-N-(n-butoxymethyl)-2-chloroacetanilide], the inhibition at 375 g/ha (Eleocharis kuroguwai; 3 WAT) is reported as 52%, the inhibition at 375 g/ha (Eleocharis kuroguwai; 5 WAT) is reported as 23% and the inhibition at 375 g/ha (Eleocharis kuroguwai; 7 WAT) is reported as 15%. The inhibition at 750 g/ha (Eleocharis kuroguwai; 3 WAT) was 75%, the inhibition at 750 g/ha (Eleocharis kuroguwai; 5 WAT) was 68% and the inhibition at 750 g/ha (Eleocharis kuroguwai; 7 WAT) was 32%. It also gave an inhibition at 1500 g/ha (Eleocharis kuroguwai; 3 WAT) of 70%, an inhibition at 1500 g/ha (Eleocharis kuroguwai; 5 WAT) of 77% and an inhibition at 1500 g/ha (Eleocharis kuroguwai; 7 WAT) of 38%. It also gave an inhibition at 3000 g/ha (Eleocharis kuroguwai; 3 WAT) of 83%, an inhibition at 3000 g/ha (Eleocharis kuroguwai; 5 WAT) of 93% and an inhibition at 3000 g/ha (Eleocharis kuroguwai; 7 WAT) of 74%. The “selectivity factor (GR15/GR85), EK in transplant rice” value (Eleocharis kuroguwai; at 5 WAT) was “greater than 1”, the inhibition at 375 g/ha (Monochoria vaginalis; 3 WAT) was 97% and the inhibition at 375 g/ha (Monochoria vaginalis; 5 WAT) was 98%. It also gave an inhibition at 375 g/ha (Monochoria vaginalis; 7 WAT) of 60%, an inhibition at 750 g/ha (Monochoria vaginalis; 3 WAT) of 100% and an inhibition at 750 g/ha (Monochoria vaginalis; 5 WAT) of 100%. For the same molecule, the inhibition at 750 g/ha (Monochoria vaginalis; 7 WAT) was 100%, the inhibition at 1500 g/ha (Monochoria vaginalis; 3 WAT) was 100% and the inhibition at 1500 g/ha (Monochoria vaginalis; 5 WAT) was 100%. The inhibition at 1500 g/ha (Monochoria vaginalis; 7 WAT) was 100%, the inhibition at 3000 g/ha (Monochoria vaginalis; 3 WAT) was 100% and the inhibition at 3000 g/ha (Monochoria vaginalis; 5 WAT) was 100%. The inhibition at 3000 g/ha (Monochoria vaginalis; 7 WAT) was 100%, the “selectivity factor (GR15/GR85), MV in transplant rice” value (Monochoria vaginalis) was 8 and the inhibition at 375 g/ha (Rice; 3 WAT) was 17%. For the same molecule, the inhibition at 375 g/ha (Rice; 5 WAT) was 8%, the inhibition at 375 g/ha (Rice; 7 WAT) was 10% and the inhibition at 750 g/ha (Rice; 3 WAT) was 10%. It also gave an inhibition at 750 g/ha (Rice; 5 WAT) of 7%, an inhibition at 750 g/ha (Rice; 7 WAT) of 8% and an inhibition at 1500 g/ha (Rice; 3 WAT) of 18%. It also gave an inhibition at 1500 g/ha (Rice; 5 WAT) of 15%, an inhibition at 1500 g/ha (Rice; 7 WAT) of 13% and an inhibition at 3000 g/ha (Rice; 3 WAT) of 10%. For the same molecule, the inhibition at 3000 g/ha (Rice; 5 WAT) was 5%, the inhibition at 3000 g/ha (Rice; 7 WAT) was 8% and the inhibition at 375 g/ha (Echinochloa crus-galli; 2 WAT) was 98%. It also gave an inhibition at 375 g/ha (Echinochloa crus-galli; 4 WAT) of 100%, an inhibition at 375 g/ha (Echinochloa crus-galli; 6 WAT) of 98% and an inhibition at 750 g/ha (Echinochloa crus-galli; 2 WAT) of 100%. It also gave an inhibition at 750 g/ha (Echinochloa crus-galli; 4 WAT) of 100%, an inhibition at 750 g/ha (Echinochloa crus-galli; 6 WAT) of 100% and an inhibition at 1500 g/ha (Echinochloa crus-galli; 2 WAT) of 100%. For the same molecule, the inhibition at 1500 g/ha (Echinochloa crus-galli; 4 WAT) was 100%, the inhibition at 1500 g/ha (Echinochloa crus-galli; 6 WAT) was 100% and the inhibition at 3000 g/ha (Echinochloa crus-galli; 2 WAT) was 98%. For the same molecule, the inhibition at 3000 g/ha (Echinochloa crus-galli; 4 WAT) was 100% and the inhibition at 3000 g/ha (Echinochloa crus-galli; 6 WAT) was 100%.

With `CCCCOCCN(C(=O)CCl)c1c(CC)cccc1CC` [Compound B, 2',6'-diethyl-N-(n-butoxyethyl)-2-chloroacetanilide] the “selectivity factor (GR15/GR85), EK in transplant rice” value (Eleocharis kuroguwai; 3 WAT) was “non-selective”, the inhibition at 375 g/ha (Eleocharis kuroguwai; 3 WAT) was 27% and the inhibition at 375 g/ha (Eleocharis kuroguwai; 5 WAT) was 3%. For the same molecule, the inhibition at 375 g/ha (Eleocharis kuroguwai; 7 WAT) was 0%, the inhibition at 750 g/ha (Eleocharis kuroguwai; 3 WAT) was 28% and the inhibition at 750 g/ha (Eleocharis kuroguwai; 5 WAT) was 5%. The inhibition at 750 g/ha (Eleocharis kuroguwai; 7 WAT) was 0%, the inhibition at 1500 g/ha (Eleocharis kuroguwai; 3 WAT) was 42% and the inhibition at 1500 g/ha (Eleocharis kuroguwai; 5 WAT) was 32%. For the same molecule, the inhibition at 1500 g/ha (Eleocharis kuroguwai; 7 WAT) was 0%, the inhibition at 3000 g/ha (Eleocharis kuroguwai; 3 WAT) was 55% and the inhibition at 3000 g/ha (Eleocharis kuroguwai; 5 WAT) was 43%. It also gave an inhibition at 3000 g/ha (Eleocharis kuroguwai; 7 WAT) of 18%, an inhibition at 375 g/ha (Monochoria vaginalis; 3 WAT) of 100% and an inhibition at 375 g/ha (Monochoria vaginalis; 5 WAT) of 95%. The inhibition at 375 g/ha (Monochoria vaginalis; 7 WAT) was 77%, the inhibition at 750 g/ha (Monochoria vaginalis; 3 WAT) was 97% and the inhibition at 750 g/ha (Monochoria vaginalis; 5 WAT) was 98%. The inhibition at 750 g/ha (Monochoria vaginalis; 7 WAT) was 88%, the inhibition at 1500 g/ha (Monochoria vaginalis; 3 WAT) was 98% and the inhibition at 1500 g/ha (Monochoria vaginalis; 5 WAT) was 100%. For the same molecule, the inhibition at 1500 g/ha (Monochoria vaginalis; 7 WAT) was 100%, the inhibition at 3000 g/ha (Monochoria vaginalis; 3 WAT) was 100% and the inhibition at 3000 g/ha (Monochoria vaginalis; 5 WAT) was 100%. For the same molecule, the inhibition at 3000 g/ha (Monochoria vaginalis; 7 WAT) was 97%, the “selectivity factor (GR15/GR85), MV in transplant rice” value (Monochoria vaginalis) was 8 and the inhibition at 375 g/ha (Rice; 3 WAT) was 12%. It also gave an inhibition at 375 g/ha (Rice; 5 WAT) of 0%, an inhibition at 375 g/ha (Rice; 7 WAT) of 5% and an inhibition at 750 g/ha (Rice; 3 WAT) of 12%. The inhibition at 750 g/ha (Rice; 5 WAT) was 5%, the inhibition at 750 g/ha (Rice; 7 WAT) was 3% and the inhibition at 1500 g/ha (Rice; 3 WAT) was 10%. For the same molecule, the inhibition at 1500 g/ha (Rice; 5 WAT) was 2%, the inhibition at 1500 g/ha (Rice; 7 WAT) was 5% and the inhibition at 3000 g/ha (Rice; 3 WAT) was 12%. For the same molecule, the inhibition at 3000 g/ha (Rice; 5 WAT) was 5%, the inhibition at 3000 g/ha (Rice; 7 WAT) was 2% and the inhibition at 375 g/ha (Echinochloa crus-galli; 2 WAT) was 55%. For the same molecule, the inhibition at 375 g/ha (Echinochloa crus-galli; 4 WAT) was 68%, the inhibition at 375 g/ha (Echinochloa crus-galli; 6 WAT) was 37% and the inhibition at 750 g/ha (Echinochloa crus-galli; 2 WAT) was 87%. For the same molecule, the inhibition at 750 g/ha (Echinochloa crus-galli; 4 WAT) was 93%, the inhibition at 750 g/ha (Echinochloa crus-galli; 6 WAT) was 88% and the inhibition at 1500 g/ha (Echinochloa crus-galli; 2 WAT) was 90%. It also gave an inhibition at 1500 g/ha (Echinochloa crus-galli; 4 WAT) of 98%, an inhibition at 1500 g/ha (Echinochloa crus-galli; 6 WAT) of 98% and an inhibition at 3000 g/ha (Echinochloa crus-galli; 2 WAT) of 97%. For the same molecule, the inhibition at 3000 g/ha (Echinochloa crus-galli; 4 WAT) was 100% and the inhibition at 3000 g/ha (Echinochloa crus-galli; 6 WAT) was 100%.
